Assay results as given in patent US10166216B2 (Rigel Pharmaceuticals, Inc., priority 2006, dated 2019).

Each compound was assayed against Axl (Homo sapiens (Human), UniProt P30530) (assay: Phospho-Akt in-cell Western assay (Axl-antibody cross-linking stimulation)). Settings: inhibition of Axl activity, Hela cells, phospho-Akt readout; Table 5, formula (Ia3).
Assay type: cell-based
Method in brief: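 HeLa cells on poly-L-lysine, starved 24 hrs with Axl/Fc, pre-treated with compound 1 hr at 37° C., then stimulated 5 min with Axl primary/secondary antibody cluster. Fixed cells probed for phospho-Akt by chemiluminescent in-cell Western; signal normalized to crystal violet cell number.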

Sequence of Axl (P30530 26-894): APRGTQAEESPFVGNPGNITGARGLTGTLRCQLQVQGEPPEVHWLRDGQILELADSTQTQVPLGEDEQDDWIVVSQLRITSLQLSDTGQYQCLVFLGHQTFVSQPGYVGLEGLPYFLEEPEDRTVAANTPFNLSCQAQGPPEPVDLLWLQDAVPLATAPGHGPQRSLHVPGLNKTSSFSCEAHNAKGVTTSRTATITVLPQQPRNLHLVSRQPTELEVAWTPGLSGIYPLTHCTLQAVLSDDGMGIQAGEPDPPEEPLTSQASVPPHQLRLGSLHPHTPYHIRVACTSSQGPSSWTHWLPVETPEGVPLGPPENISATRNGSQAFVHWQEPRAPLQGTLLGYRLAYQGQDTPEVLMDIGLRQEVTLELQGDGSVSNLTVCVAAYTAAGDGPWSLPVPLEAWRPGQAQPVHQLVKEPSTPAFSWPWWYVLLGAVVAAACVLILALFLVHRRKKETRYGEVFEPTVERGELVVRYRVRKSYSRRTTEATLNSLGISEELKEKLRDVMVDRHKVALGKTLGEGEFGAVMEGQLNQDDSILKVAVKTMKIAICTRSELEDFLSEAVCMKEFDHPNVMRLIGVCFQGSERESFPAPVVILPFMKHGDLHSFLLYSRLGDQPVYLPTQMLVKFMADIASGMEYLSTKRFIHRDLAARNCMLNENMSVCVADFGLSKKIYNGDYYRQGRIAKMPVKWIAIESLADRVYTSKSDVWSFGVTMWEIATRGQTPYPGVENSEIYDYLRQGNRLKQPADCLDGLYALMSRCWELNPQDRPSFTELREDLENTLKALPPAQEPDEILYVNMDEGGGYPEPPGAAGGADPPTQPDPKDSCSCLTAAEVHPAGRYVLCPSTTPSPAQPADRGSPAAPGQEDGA

Compound | IC50
COc1ccc(Nc2nc(N)n(-c3ccccn3)n2)cc1 [Compound 142, N^3-(4-methoxyphenyl)-1-(pyridin-2-yl)-1H-1,2,4-triazole-3,5-diamine] | > 20 µM

Same assay, conditions: inhibition of Axl activity, phospho-Akt in-cell Western assay

Compound | IC50
COc1cc2c(-n3nc(Nc4ccc(N5CCN(C6CC7CCC6C7)CC5)c(F)c4)nc3N)ncnc2cc1O (centres unmarked) [Compound 106, 4-(5-amino-3-(4-(4-(bicyclo[2.2.1]heptan-2-yl)piperazin-1-yl)-3-fluorophenylamino)-1H-1,2,4-triazol-1-yl)-6-methoxyquinazolin-7-ol] | < 1 µM
COc1cc2ncnc(-n3nc(Nc4ccc(N5CCN(C(C)=O)CC5)cc4)nc3N)c2cc1OC [Compound 107, 1-(4-(4-(5-amino-1-(6,7-dimethoxyquinazolin-4-yl)-1H-1,2,4-triazol-3-ylamino)phenyl)piperazin-1-yl)ethanone] | < 1 µM
CN1CCN(c2ccc(Nc3nc(N)n(-c4cc5c(nn4)-c4ccccc4CC5)n3)cc2)CC1 [Compound 108, 1-(5,6-dihydrobenzo[h]cinnolin-3-yl)-N^3-(4-(4-methylpiperazin-1-yl)phenyl)-1H-1,2,4-triazole-3,5-diamine] | < 1 µM
COc1cc2c(-n3nc(Nc4ccc(N5CCN(C6CCCCCC6)CC5)cc4)nc3N)ncnc2cc1O [Compound 109, 4-(5-amino-3-(4-(4-cycloheptylpiperazin-1-yl)phenylamino)-1H-1,2,4-triazol-1-yl)-6-methoxyquinazolin-7-ol] | < 1 µM
COc1cc2ncnc(-n3nc(Nc4ccc(N5CCN(C6CCCCCC6)CC5)cc4)nc3N)c2cc1OC [Compound 110, N^3-(4-(4-cycloheptylpiperazin-1-yl)phenyl)-1-(6,7-dimethoxyquinazolin-4-yl)-1H-1,2,4-triazole-3,5-diamine] | < 1 µM
COc1cc2ncnc(-n3nc(Nc4ccc(N5CCN(C6C7CC8CC(C7)CC6C8)CC5)cc4)nc3N)c2cc1OC (centres unmarked) [Compound 111] | > 20 µM
COc1cc2ncnc(-n3nc(Nc4ccc(N5CCN(C6CCCCCCC6)CC5)cc4)nc3N)c2cc1OC [Compound 112, N^3-(4-(4-cyclooctylpiperazin-1-yl)phenyl)-1-(6,7-dimethoxyquinazolin-4-yl)-1H-1,2,4-triazole-3,5-diamine] | > 20 µM
CN1CCN(c2ccc(Nc3nc(N)n(-c4nccc5[nH]c(=O)ccc45)n3)cc2F)CC1 [Compound 113, 5-(5-amino-3-(3-fluoro-4-(4-methylpiperazin-1-yl)phenylamino)-1H-1,2,4-triazol-1-yl)-1,6-naphthyridin-2(1H)-one] | < 1 µM
COc1cc2ncnc(-n3nc(Nc4ccc(N5CCN(C6CCCCC6)CC5)c(Cl)c4)nc3N)c2cc1OC [Compound 114, N^3-(3-chloro-4-(4-cyclohexylpiperazin-1-yl)phenyl)-1-(6,7-dimethoxyquinazolin-4-yl)-1H-1,2,4-triazole-3,5-diamine] | < 1 µM
Nc1nc(Nc2ccc(N3CCN(C4CCCCC4)CC3)cc2)nn1-c1cc2c(nn1)-c1ccccc1CC2 [Compound 115, N^3-(4-(4-cyclohexylpiperazin-1-yl)phenyl)-1-(5,6-dihydrobenzo[h]cinnolin-3-yl)-1H-1,2,4-triazole-3,5-diamine] | 1 to 10 µM
CN1CCN(c2ccc(Nc3nc(N)n(-c4ncnc5cc(O)c(O)cc45)n3)cc2F)CC1 [Compound 116, 4-(5-amino-3-(3-fluoro-4-(4-methylpiperazin-1-yl)phenylamino)-1H-1,2,4-triazol-1-yl)quinaoline-6,7-diol] | 1 to 10 µM
COc1cc2c(-n3nc(Nc4ccc(N5CCN(C)CC5)c(F)c4)nc3N)ncnc2cc1O [Compound 117, 4-(5-amino-3-(3-fluoro-4-(4-methylpiperazin-1-yl)phenylamino)-1H-1,2,4-triazol-1-yl)-6-methoxyquinazolin-7-ol] | < 1 µM
COc1cc2ncnc(-n3nc(Nc4ccc(N5CCN(C6C7CCCC6CCC7)CC5)cc4)nc3N)c2cc1OC (centres unmarked) [Compound 118, N^3-(4-(4-(bicyclo[3.3.1]nonan-9-yl)piperazin-1-yl)phenyl)-1-(6,7-dimethoxyquinazolin-4-yl)-1H-1,2,4-triazole-3,5-diamine] | 1 to 10 µM
CCN1CCN(c2cc(Nc3nc(N)n(-c4ncnc5cc(OC)c(OC)cc45)n3)ccc2Cl)CC1 [Compound 119, N-(4-chloro-3-(4-ethylpiperazin-1-yl)phenyl)-1-(6,7-dimethoxyquinazolin-4-yl)-1H-1,2,4-triazole-3,5-diamine] | 1 to 10 µM
COc1cc2ncnc(-n3nc(Nc4ccc(Cl)c(N5CCN(C(C)=O)CC5)c4)nc3N)c2cc1OC [Compound 120, 1-(4-(5-(5-amino-1-(6,7-dimethoxyquinazolin-4-yl)-1H-1,2,4-triazol-3-ylamino)-2-chlorophenyl)piperazin-1-yl)ethanone] | > 20 µM
COc1cc2ncnc(-n3nc(Nc4ccc(N5CCN(C)CC5)c(C(N)=O)c4)nc3N)c2cc1OC [Compound 121, 5-(5-amino-1-(6,7-dimethoxyquinazolin-4-yl)-1H-1,2,4-triazol-3-ylamino)-2-(4-methylpiperazin-1-yl)benzamide] | 1 to 10 µM

Compound | IC50
COc1cc2ncnc(-n3nc(Nc4ccc(N5CCN(C6CCCCC6)CC5)c(F)c4)nc3N)c2cc1OC [Compound 122, N^3-(4-(4-cyclohexylpiperazin-1-yl)-3-fluorophenyl)-1-(6,7-dimethoxyquinazolin-4-yl)-1H-1,2,4-triazole-3,5-diamine] | < 1 µM
COc1cc2ncnc(-n3nc(Nc4ccc(N5CCN(C6CC7CCC6C7)CC5)c(F)c4)nc3N)c2cc1OC (centres unmarked) [Compound 123, N^3-(4-(4-(bicyclo[2.2.1]heptan-2-yl)piperazin-1-yl)-3-fluorophenyl)-1-(6,7-dimethoxyquinazolin-4-yl)-1H-1,2,4-triazole-3,5-diamine] | > 20 µM
COc1cc2ncnc(-n3nc(Nc4ccc(N5CCN(C6CC7CCCC76)CC5)cc4)nc3N)c2cc1OC (centres unmarked) [Compound 124, N^3-(4-(4-(bicyclo[3.2.0]heptan-6-yl)piperazin-1-yl)phenyl)-1-(6,7-dimethoxyquinazolin-4-yl)-1H-1,2,4-triazole-3,5-diamine] | > 20 µM
COc1cc2ccnc(-n3nc(Nc4ccc(N5CCN(C6CC7CCC6C7)CC5)cc4)nc3N)c2cc1OC (centres unmarked) [Compound 125, N^3-(4-(4-(bicyclo[2.2.1]heptan-2-yl)piperazin-1-yl)phenyl)-1-(6,7-dimethoxyisoquinolin-1-yl)-1H-1,2,4-triazole-3,5-diamine] | < 1 µM
COc1cc2ccnc(-n3nc(Nc4ccc(N5CCN(C6CCCCCC6)CC5)cc4)nc3N)c2cc1OC [Compound 126, N^3-(4-(4-cycloheptylpiperazin-1-yl)phenyl)-1-(6,7-dimethoxyisoquinolin-1-yl)-1H-1,2,4-triazole-3,5-diamine] | < 1 µM
Nc1nc(Nc2ccc(N3CCN(C4CC5CCC4C5)CC3)cc2)nn1-c1ncnc2sccc12 (centres unmarked) [Compound 127, N^3-(4-(4-(bicyclo[2.2.1]heptan-2-yl)piperazin-1-yl)phenyl)-1-(thieno[2,3-d]pyrimidin-4-yl)-1H-1,2,4-triazole-3,5-diamine] | < 1 µM
Nc1nc(Nc2ccc(N3CCN(C4CC5CCC4C5)CC3)cc2)nn1-c1ncnc2ccsc12 (centres unmarked) [Compound 128, N^3-(4-(4-(bicyclo[2.2.1]heptan-2-yl)piperazin-1-yl)phenyl)-1-(thieno[3,2-d]pyrimidin-4-yl)-1H-1,2,4-triazole-3,5-diamine] | < 1 µM
Nc1nc(Nc2ccc(N3CCN(C4CC5CCC4C5)CC3)cc2)nn1-c1ncnc2cc(-c3ccccc3)sc12 (centres unmarked) [Compound 129, N^3-(4-(4-(bicyclo[2.2.1]heptan-2-yl)piperazin-1-yl)phenyl)-1-(6-phenylthieno[3,2-d]pyrimidin-4-yl)-1H-1,2,4-triazole-3,5-diamine] | 1 to 10 µM
Nc1nc(Nc2ccc(N3CCN(C4CC5CCC4C5)CC3)cc2)nn1-c1nccc2occc12 (centres unmarked) [Compound 131, N^3-(4-(4-(bicyclo[2.2.1]heptan-2-yl)piperazin-1-yl)phenyl)-1-(furo[3,2-c]pyridin-4-yl)-1H-1,2,4-triazole-3,5-diamine] | < 1 µM
Nc1nc(Nc2ccc(N3CCN(C4CC5CCC4C5)CC3)cc2)nn1-c1ncnc2sc3c(c12)CCC3 (centres unmarked) [Compound 132, N^3-(4-(4-(bicyclo[2.2.1]heptan-2-yl)piperazin-1-yl)phenyl)-1-(6,7-dihydro-5H-cyclopenta[4,5]thieno[2,3-d]pyrimidin-4-yl)-1H-1,2,4-triazole-3,5-diamine] | 1 to 10 µM
Cc1csc2c(-n3nc(Nc4ccc(C5CCN(C6CC7CCC6C7)CC5)cc4)nc3N)nc(Cl)nc12 (centres unmarked) [Compound 134, N^3-(4-(1-(bicyclo[2.2.1]heptan-2-yl)piperidin-4-yl)phenyl)-1-(2-chloro-7-methylthieno[3,2-d]pyrimidin-4-yl)-1H-1,2,4-triazole-3,5-diamine] | < 1 µM
Nc1nc(Nc2ccc(N3CCN(C4CC5CCC4C5)CC3)cc2)nn1-c1nc(C(F)(F)F)nc2ccccc12 (centres unmarked) [Compound 136, N^3-(4-(4-(bicyclo[2.2.1]heptan-2-yl)piperazin-1-yl)phenyl)-1-(2-(trifluoromethyl)quinazolin-4-yl)-1H-1,2,4-triazole-3,5-diamine] | 1 to 10 µM
Cc1nc(-n2nc(Nc3ccc(N4CCN(C5CC6CCC5C6)CC4)cc3)nc2N)c2c(C)c(C)sc2n1 (centres unmarked) [Compound 137, N^3-(4-(4-(bicyclo[2.2.1]heptan-2-yl)piperazin-1-yl)phenyl)-1-(2,5,6-trimethylthieno[2,3-d]pyrimidin-4-yl)-1H-1,2,4-triazole-3,5-diamine] | 1 to 10 µM
Cc1sc2ncnc(-n3nc(Nc4ccc(N5CCN(C6CC7CCC6C7)CC5)cc4)nc3N)c2c1C (centres unmarked) [Compound 138, N^3-(4-(4-(bicyclo[2.2.1]heptan-2-yl)piperazin-1-yl)phenyl)-1-(5,6-dimethylthieno[2,3-d]pyrimidin-4-yl)-1H-1,2,4-triazole-3,5-diamine] | 1 to 10 µM
Cc1csc2c(-n3nc(Nc4ccc(N5CCN(C6CC7CCC6C7)CC5)c(F)c4)nc3N)nc(Cl)nc12 (centres unmarked) [Compound 140, N^3-(4-(4-(bicyclo[2.2.1]heptan-2-yl)piperazin-1-yl)-3-fluorophenyl)-1-(2-chloro-7-methylthieno[3,2-d]pyrimidin-4-yl)-1H-1,2,4-triazole-3,5-diamine] | 1 to 10 µM
